Results: PMC12519771 (BMC Cancer, 2025)

How the values were obtained:
[1] = cited from earlier work
[2] = human, in vivo, po, 480 mg
From the text: After completion of Part A, patients continued to Part B of the study. […] Treatment with paclitaxel continued for at least six cycles unless the patient experienced unacceptable paclitaxel-related toxicity or disease progression.
For patients with dose interruption in Cycle 2 before Week 2 Day 5, sample collection could be postponed to Week 2 Day 5 of the subsequent or later cycle, providing there was no dose interruption before Week 2 Day 5 of that cycle.

[3] = Adverse events (CTCAE v5.0), safety analysis set
Experimental: Adverse events were recorded continuously until 30 (± 7) days after discontinuation of study treatment and graded using the National Cancer Institute Common Terminology Criteria for Adverse Events v5.0.

[4] = oral administration, Western and Japanese patients
[5] = related to capivasertib only per investigator, N = 16

SMILES: NC1(C(=O)N[C@@H](CCO)c2ccc(Cl)cc2)CCN(c2nc[nH]c3nccc2-3)CC1 [Capivasertib, capivasertib]
- dose proportionality of plasma exposure (AUC over the dosing interval and Cmax) ([1]; doses ranging from 80 mg to 800 mg): approximately dose-proportional
- median tmax [1, 4]: 1 to 2 h
- terminal elimination half-life (t½λz) [1, 4]: approximately 10 h
- AUC(0–12), gMean gCV % [2]: 5630 62.2 h×ng/mL
- AUC(0–48), gMean gCV % [2]: 7244 58.8 h×ng/mL
- AUCinf, gMean gCV % [2]: 7397 58.7 h×ng/mL
- CL/F, gMean gCV % [2]: 64.9 L/h
- tmax, median (range) [2]: 1.0 h
- patients with adverse events leading to dose interruptions of capivasertib ([3]; N = 16): 87.5%
- patients with adverse events leading to dose reductions of capivasertib ([3]; N = 16): 31.3%
- Anaemia, Grade ≥3 [3, 5]: 0 n (%)
- Anaemia, any grade [3, 5]: 4 (25.0) n (%)
- Any adverse event, Grade ≥3 [3, 5]: 9 (56.3) n (%)
- Any adverse event, any grade [3, 5]: 16 (100.0) n (%)
- Aspartate aminotransferase increased, Grade ≥3 [3, 5]: 0 n (%)
- Aspartate aminotransferase increased, any grade [3, 5]: 1 (6.3) n (%)
- Blood albumin decreased, Grade ≥3 [3, 5]: 0 n (%)
- Blood albumin decreased, any grade [3, 5]: 1 (6.3) n (%)
- Blood bilirubin increased, Grade ≥3 [3, 5]: 0 n (%)
- Blood bilirubin increased, any grade [3, 5]: 2 (12.5) n (%)
- Blood creatinine increased, Grade ≥3 [3, 5]: 0 n (%)
- Blood creatinine increased, any grade [3, 5]: 2 (12.5) n (%)
- Blood triglycerides increased, Grade ≥3 [3, 5]: 0 n (%)
- Blood triglycerides increased, any grade [3, 5]: 0 n (%)
- Blood uric acid increased, Grade ≥3 [3, 5]: 0 n (%)
- Blood uric acid increased, any grade [3, 5]: 1 (6.3) n (%)
- Diarrhoea, Grade ≥3 [3, 5]: 0 n (%)
- Diarrhoea, any grade [3, 5]: 11 (68.8) n (%)
- Glycosylated haemoglobin increased, Grade ≥3 [3, 5]: 0 n (%)
- Glycosylated haemoglobin increased, any grade [3, 5]: 0 n (%)
- Hyperglycaemia, Grade ≥3 [3, 5]: 2 (12.5) n (%)
- Hyperglycaemia, any grade [3, 5]: 15 (93.8) n (%)
- Hypoalbuminaemia, Grade ≥3 [3, 5]: 0 n (%)
- Hypoalbuminaemia, any grade [3, 5]: 4 (25.0) n (%)
- Hypocalcaemia, Grade ≥3 [3, 5]: 0 n (%)
- Hypocalcaemia, any grade [3, 5]: 1 (6.3) n (%)
- Hypokalaemia, Grade ≥3 [3, 5]: 0 n (%)
- Hypokalaemia, any grade [3, 5]: 1 (6.3) n (%)
- Hypomagnesaemia, Grade ≥3 [3, 5]: 0 n (%)
- Hypomagnesaemia, any grade [3, 5]: 4 (25.0) n (%)
- Hyponatraemia, Grade ≥3 [3, 5]: 0 n (%)
- Hyponatraemia, any grade [3, 5]: 5 (31.3) n (%)
- Hypophosphataemia, Grade ≥3 [3, 5]: 0 n (%)
- Hypophosphataemia, any grade [3, 5]: 0 n (%)
- Nausea, Grade ≥3 [3, 5]: 0 n (%)
- Nausea, any grade [3, 5]: 2 (12.5) n (%)
- Neutrophil count decreased, Grade ≥3 [3, 5]: 0 n (%)
- Neutrophil count decreased, any grade [3, 5]: 1 (6.3) n (%)
- Oedema peripheral, Grade ≥3 [3, 5]: 0 n (%)
- Oedema peripheral, any grade [3, 5]: 1 (6.3) n (%)
- Peripheral sensory neuropathy, Grade ≥3 [3, 5]: 0 n (%)
- Peripheral sensory neuropathy, any grade [3, 5]: 0 n (%)
- Platelet count decreased, Grade ≥3 [3, 5]: 0 n (%)
- Platelet count decreased, any grade [3, 5]: 1 (6.3) n (%)
- Proteinuria, Grade ≥3 [3, 5]: 0 n (%)
- Proteinuria, any grade [3, 5]: 5 (31.3) n (%)
- Pyrexia, Grade ≥3 [3, 5]: 0 n (%)
- Pyrexia, any grade [3, 5]: 6 (37.5) n (%)
- Rash (group term), Grade ≥3 [3, 5]: 5 (31.3) n (%)
- Rash (group term), any grade [3, 5]: 10 (62.5) n (%)
- Stomatitis, Grade ≥3 [3, 5]: 0 n (%)
- Stomatitis, any grade [3, 5]: 1 (6.3) n (%)
- Vomiting, Grade ≥3 [3, 5]: 0 n (%)
- Vomiting, any grade [3, 5]: 1 (6.3) n (%)
- Weight decreased, Grade ≥3 [3, 5]: 0 n (%)
- Weight decreased, any grade [3, 5]: 0 n (%)
- White blood cell count decreased, Grade ≥3 [3, 5]: 1 (6.3) n (%)
- White blood cell count decreased, any grade [3, 5]: 2 (12.5) n (%)

SMILES: CC(=O)O[C@H]1C(=O)[C@@]2(C)[C@H]([C@H](OC(=O)c3ccccc3)[C@]3(O)C[C@H](OC(=O)[C@H](O)[C@@H](NC(=O)c4ccccc4)c4ccccc4)C(C)=C1C3(C)C)[C@]1(OC(C)=O)CO[C@@H]1C[C@@H]2O [paclitaxel]
- patients with adverse events leading to dose interruptions of paclitaxel ([3]; human, in vivo): 75.0%
- patients with adverse events leading to dose reductions of paclitaxel ([3]; human, in vivo): 31.3%
